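Cells were grown in 96-well plates and exposed to each compound for 48 hours at five concentrations; endpoints were interpolated linearly between bracketing concentrations, or set to the highest concentration if not reached. GI50 is the concentration that inhibits growth by half. At the TGI there is no net growth.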
Key:
Experiment in all cases: NCI-60 cell line screen, 48 h
[1] = system: NCI-H23 lung
[2] = system: NCI-H226 lung
[3] = system: ACHN renal
[4] = system: CAKI-1 renal
[5] = system: SNB-19 CNS
[6] = system: HOP-62 NSCLC
[7] = system: OVCAR-5 ovarian
[8] = system: A498 renal
[9] = system: 786-0 renal
[10] = system: RXF 393 renal

Compound | GI50 [1] | TGI [1] | GI50 [2] | TGI [2] | GI50 [3] | TGI [3] | GI50 [4] | TGI [4] | GI50 [5] | TGI [5] | GI50 [6] | TGI [6] | GI50 [7] | TGI [7] | GI50 [8] | TGI [8] | GI50 [9] | TGI [9] | GI50 [10] | TGI [10]
CN1C(=O)N(C)C2C1NC(=S)N2/N=C/C=C/c1ccccc1[N+](=O)[O-] (stereo not given) | 2.75 µM | > 100 µM | 17.5 µM | > 100 µM | 0.988 µM | > 100 µM | 1.46 µM | > 100 µM | 0.952 µM | > 100 µM | 1.01 µM | > 100 µM | 3.88 µM | > 100 µM | 0.513 µM | 7.26 µM | 0.835 µM | > 100 µM | 2.42 µM | > 100 µM
COc1cc(OC)c(/C=C/C(=O)c2c(OC)cc(OC)cc2OC)c(OC)c1 | 1.35 µM | 6.67 µM | 3.41 µM | > 100 µM | 2.3 µM | > 100 µM | 1.66 µM | > 37.2 µM | 2.54 µM | 14.9 µM | 1.27 µM | > 100 µM | 2.8 µM | 53 µM | 0.27 µM | 4.85 µM | 2.02 µM | > 74.7 µM | 1.3 µM | 4.99 µM
CCC(=O)NC1=C(Cl)C(=O)C(NC(=O)CC)=C(Cl)C1=O | 18.5 µM | 40.8 µM | > 45.6 µM | > 62.1 µM | 5.6 µM | 10.9 µM | 5.98 µM | 10.8 µM | > 41 µM | > 55.7 µM | > 47.7 µM | > 65.1 µM | 20.6 µM | 40.5 µM | 38.2 µM | > 72.6 µM | 18.7 µM | 33.4 µM | 6.64 µM | 12.8 µM
CC(NNC(=S)N1CCN(c2ccccn2)CC1)c1nccc2ccccc12 (stereo not given) |  | 13.7 µM |  | 8.11 µM |  | 10.9 µM |  | 10.3 µM |  | 17 µM |  | 15.5 µM |  | 14.2 µM |  | 17.3 µM |  | 13 µM |  | 8.53 µM
CN1CCN(Cc2ccc(NC(=O)c3cncc(C#Cc4ccc(N)nc4)c3)cc2C(F)(F)F)CC1 | 1.3 µM | 6.27 µM | 0.358 µM | 2.75 µM | 0.461 µM | 4.4 µM | 0.312 µM | 2.09 µM | 2.6 µM | 9.44 µM | 1.3 µM | 6.08 µM | 1.38 µM | 7.22 µM | 0.567 µM | 1.93 µM | 1.76 µM | 6.83 µM | 0.524 µM | 2.14 µM
COc1cc2ncnc(Oc3ccc(NC(=O)Nc4ccc(CN5CCOCC5)c(C(F)(F)F)c4)c4ccccc34)c2cc1OC | 0.785 µM | 4.16 µM | 0.264 µM | 16 µM | 0.303 µM | 1.41 µM | 0.454 µM | 3.16 µM | 2.35 µM | 12.2 µM | 2.5 µM | 10.1 µM | 1.15 µM | 6.95 µM | 0.0424 µM | 0.584 µM | 0.831 µM | 6.74 µM | 0.692 µM | 5.69 µM

Source: PubChem BioAssay (NCI)
